Experimental data from US12365696B2, “Small-molecule focal adhesion kinase (FAK) inhibitors” (DANA-FARBER CANCER INSTITUTE, INC., priority 2019, dated 2025).
Values joined by “and” are separate entries in the source; they are usually repeats but may differ in a detail not shown here. Identical values can stand only once. Like-named read-outs stand apart in the source and are kept apart here.

Columns and labels:
PTK2 (FAK) = PTK2 (FAK) (Homo sapiens (Human), UniProt Q05397); assay: Z′-LYTE kinase assay (SelectScreen Biochemical Kinase Profiling), enzymatic IC50
Experimental: Enzymatic IC50 data was obtained through ThermoFisher Scientific SelectScreen™ Biochemical Kinase Profiling Service, using a Z′-LYTE™ kinase-specific assay, as described below.
The test compounds were screened in 1% dimethyl sulfoxide (DMSO) (final) in the well. For 10 point titrations, 3-fold serial dilutions were conducted from the starting concentration.
All peptide/kinase mixtures were diluted to a 2× working concentration in the appropriate kinase buffer (see section kinase specific assay conditions for a complete description).
All ATP solutions were diluted to a 4× working concentration in kinase buffer (50 mM 4-(2-hydroxyethyl)-1-piperazineethanesulfonic acid (HEPES) pH 7.5, 0.01% BRIJ-35, 10 mM MgCl2, 1 mM ethylene glycol-bis(β-aminoethyl ether)-N,N,N′,N′-tetraacetic acid (EGTA)). ATP Km apparent was previously determined using a Z′-LYTE assay.
The development reagent was diluted in development buffer (see section kinase-specific assay conditions—direct and cascade for a complete description).
Using a bar-coded Corning, low volume NBS, black 384-well plate (Corning Cat. #4514), 100 nL of 100× test compound in 100% DMSO was added. […] The plate was then shaken for 30 seconds and held at room temperature for a 60 minute kinase reaction incubation period. At which point 5 μL of development reagent solution was added and the plate was shaken for 30 seconds. The plate was held again at room temperature for a 60 minute development reaction incubation period and then read on a fluorescence plate reader and analyzed.
The 2×PTK2 (FAK)/Tyr 07 mixture was prepared in 50 mM HEPES pH 7.5, 0.01% BRIJ-35, 10 mM MgCl2, 1 mM EGTA. […] After the 1 hour kinase reaction incubation period, 5 μL of a 1:16 dilution of development reagent B was added.
SelectScreen Kinase Profiling Service uses XLfit from ID Business Solutions (IDBS). The dose response curve was curve fit to model number 205 (sigmoidal dose-response model).

ADCK3 = ADCK3 (Homo sapiens (Human), UniProt Q8NI60); assay: KINOMEscan; type: binding; settings: ADCK3, 10000 nM; read-out: Percent Control
AKT1 = AKT1 (Homo sapiens (Human), UniProt P31749); assay: KINOMEscan; type: binding; settings: AKT1, 10000 nM; read-out: Percent Control
ALK = ALK (Homo sapiens (Human), UniProt Q9UM73); assay: KINOMEscan; type: binding; settings: 10000 nM, read-out: Percent Control
CDK5 = CDK5 (Homo sapiens (Human), UniProt Q00535); assay: KINOMEscan; type: binding; settings: CDK5, 10000 nM; read-out: Percent Control
CSNK2A1 = CSNK2A1 (Homo sapiens (Human), UniProt P68400); assay: KINOMEscan; type: binding; settings: CSNK2A1, 10000 nM; read-out: Percent Control
EIF2AK1 = EIF2AK1 (Homo sapiens (Human), UniProt Q9BQI3); assay: KINOMEscan; type: binding; settings: EIF2AK1, 10000 nM; read-out: Percent Control
ERK3 = ERK3 (Homo sapiens (Human), UniProt Q16659); assay: KINOMEscan; type: binding; settings: ERK3, 10000 nM; read-out: Percent Control
ERK4 = ERK4 (Homo sapiens (Human), UniProt P31152); assay: KINOMEscan; type: binding; settings: ERK4, 10000 nM; read-out: Percent Control
FLT3(ITD, F691L) = assay: KINOMEscan; type: binding; settings: 10000 nM
ICK = ICK (Homo sapiens (Human), UniProt Q9UPZ9); assay: KINOMEscan; type: binding; settings: 10000 nM, read-out: Percent Control
JNK1 = JNK1 (Homo sapiens (Human), UniProt P45983); assay: KINOMEscan; type: binding; settings: JNK1, 10000 nM; read-out: Percent Control
JNK2 = JNK2 (Homo sapiens (Human), UniProt P45984); assay: KINOMEscan; type: binding; settings: JNK2, 10000 nM; read-out: Percent Control
KIT(V5S9D, V654A) = KIT(V5S9D, V654A) (Homo sapiens (Human), UniProt P10721, V559D/V654A); assay: KINOMEscan; type: binding; settings: 10000 nM, read-out: Percent Control
MEK2 = MEK2 (Homo sapiens (Human), UniProt P36507); assay: KINOMEscan; type: binding; settings: MEK2, 10000 nM; read-out: Percent Control
MEK3 = MEK3 (Homo sapiens (Human), UniProt P46734); assay: KINOMEscan; type: binding; settings: MEK3, 10000 nM; read-out: Percent Control
MEK5 = MEK5 (Homo sapiens (Human), UniProt Q13163); assay: KINOMEscan; type: binding; settings: MEK5, 10000 nM; read-out: Percent Control
MLK3 = MLK3 (Homo sapiens (Human), UniProt Q16584); assay: KINOMEscan; type: binding; settings: MLK3, 10000 nM; read-out: Percent Control
NDR1 = NDR1 (Homo sapiens (Human), UniProt Q15208); assay: KINOMEscan; type: binding; settings: NDR1, 10000 nM; read-out: Percent Control
NEK10 = NEK10 (Homo sapiens (Human), UniProt Q6ZWH5); assay: KINOMEscan; type: binding; settings: NEK10, 10000 nM; read-out: Percent Control
OSR1 = OSR1 (Homo sapiens (Human), UniProt O95747); assay: KINOMEscan; type: binding; settings: OSR1, 10000 nM; read-out: Percent Control
PCTK1 = PCTK1 (Homo sapiens (Human), UniProt Q00536); assay: KINOMEscan; type: binding; settings: PCTK1, 10000 nM; read-out: Percent Control
PIK3CA(H1047L) = PIK3CA(H1047L) (Homo sapiens (Human), UniProt P42336, H1047L); assay: KINOMEscan; type: binding; settings: 10000 nM, read-out: Percent Control
PRKD1 = PRKD1 (Homo sapiens (Human), UniProt Q15139); assay: KINOMEscan; type: binding; settings: PRKD1, 10000 nM; read-out: Percent Control
[1] = enzymatic, Z′-LYTE, read-out: FAK IC50

Sequence of PTK2 (FAK) (Q05397 whole entry): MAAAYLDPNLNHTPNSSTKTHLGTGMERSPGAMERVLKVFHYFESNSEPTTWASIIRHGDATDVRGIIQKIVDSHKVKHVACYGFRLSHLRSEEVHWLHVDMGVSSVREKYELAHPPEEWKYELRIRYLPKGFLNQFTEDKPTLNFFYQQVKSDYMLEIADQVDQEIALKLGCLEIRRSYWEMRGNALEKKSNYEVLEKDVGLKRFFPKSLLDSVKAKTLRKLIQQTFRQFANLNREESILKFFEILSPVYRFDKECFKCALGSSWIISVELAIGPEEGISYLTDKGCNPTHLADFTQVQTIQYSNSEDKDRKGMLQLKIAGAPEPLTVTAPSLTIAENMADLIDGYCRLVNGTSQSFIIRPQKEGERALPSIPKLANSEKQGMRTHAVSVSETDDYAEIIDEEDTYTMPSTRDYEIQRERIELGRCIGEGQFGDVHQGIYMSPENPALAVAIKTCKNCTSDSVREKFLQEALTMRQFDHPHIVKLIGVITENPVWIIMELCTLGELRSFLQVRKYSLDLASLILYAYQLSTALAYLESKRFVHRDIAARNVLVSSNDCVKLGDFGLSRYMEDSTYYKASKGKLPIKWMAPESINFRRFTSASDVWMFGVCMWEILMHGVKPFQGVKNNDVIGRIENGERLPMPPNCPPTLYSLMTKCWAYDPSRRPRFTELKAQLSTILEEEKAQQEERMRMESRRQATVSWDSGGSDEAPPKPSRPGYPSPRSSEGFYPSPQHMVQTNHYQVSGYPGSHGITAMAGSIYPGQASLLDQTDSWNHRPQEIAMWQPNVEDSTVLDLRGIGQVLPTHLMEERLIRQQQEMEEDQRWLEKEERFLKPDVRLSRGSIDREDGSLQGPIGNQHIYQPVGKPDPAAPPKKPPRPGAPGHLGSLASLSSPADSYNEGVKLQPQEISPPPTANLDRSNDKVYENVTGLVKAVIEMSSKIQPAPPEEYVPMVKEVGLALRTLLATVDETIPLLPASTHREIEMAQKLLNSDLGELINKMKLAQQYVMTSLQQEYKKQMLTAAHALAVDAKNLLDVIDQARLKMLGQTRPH
Sequence of EIF2AK1 (Q9BQI3 whole entry): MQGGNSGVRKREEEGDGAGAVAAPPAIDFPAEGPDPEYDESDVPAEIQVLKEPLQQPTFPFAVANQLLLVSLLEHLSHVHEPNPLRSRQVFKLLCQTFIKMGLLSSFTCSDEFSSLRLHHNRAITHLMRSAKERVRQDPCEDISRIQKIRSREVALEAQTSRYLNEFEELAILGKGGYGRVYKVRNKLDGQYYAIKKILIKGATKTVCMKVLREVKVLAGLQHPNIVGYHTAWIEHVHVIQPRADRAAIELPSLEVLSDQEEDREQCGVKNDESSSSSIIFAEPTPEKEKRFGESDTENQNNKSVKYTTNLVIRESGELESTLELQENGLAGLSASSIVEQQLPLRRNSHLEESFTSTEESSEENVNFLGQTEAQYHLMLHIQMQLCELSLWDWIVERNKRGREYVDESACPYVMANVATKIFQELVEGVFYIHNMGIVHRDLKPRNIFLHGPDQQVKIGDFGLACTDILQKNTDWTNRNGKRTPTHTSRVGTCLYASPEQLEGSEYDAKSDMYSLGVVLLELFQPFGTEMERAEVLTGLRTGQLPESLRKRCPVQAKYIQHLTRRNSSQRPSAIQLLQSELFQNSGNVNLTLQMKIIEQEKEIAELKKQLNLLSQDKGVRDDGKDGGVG
Sequence of CDK5 (Q00535 whole entry): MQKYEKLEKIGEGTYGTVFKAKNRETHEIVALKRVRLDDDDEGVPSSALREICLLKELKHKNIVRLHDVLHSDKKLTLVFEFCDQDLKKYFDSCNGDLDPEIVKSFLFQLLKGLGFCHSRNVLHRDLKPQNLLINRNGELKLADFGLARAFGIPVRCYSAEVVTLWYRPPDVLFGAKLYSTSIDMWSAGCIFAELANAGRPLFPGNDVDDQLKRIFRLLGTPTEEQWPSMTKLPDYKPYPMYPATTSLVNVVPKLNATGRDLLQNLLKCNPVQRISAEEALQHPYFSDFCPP
Sequence of NDR1 (Q15208 whole entry): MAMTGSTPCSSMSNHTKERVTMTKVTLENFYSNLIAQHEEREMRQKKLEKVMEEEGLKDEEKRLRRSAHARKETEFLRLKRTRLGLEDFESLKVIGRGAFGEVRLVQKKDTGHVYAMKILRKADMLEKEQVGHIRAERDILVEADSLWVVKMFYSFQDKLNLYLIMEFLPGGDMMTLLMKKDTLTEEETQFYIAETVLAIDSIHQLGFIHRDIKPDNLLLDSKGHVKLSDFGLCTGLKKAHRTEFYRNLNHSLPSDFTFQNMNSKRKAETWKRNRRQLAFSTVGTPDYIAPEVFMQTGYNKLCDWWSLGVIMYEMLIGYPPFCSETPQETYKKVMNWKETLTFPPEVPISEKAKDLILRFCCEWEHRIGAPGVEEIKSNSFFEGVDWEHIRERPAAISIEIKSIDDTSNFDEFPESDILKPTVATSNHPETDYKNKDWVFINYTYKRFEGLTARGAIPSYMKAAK
Sequence of ADCK3 (Q8NI60 163-647): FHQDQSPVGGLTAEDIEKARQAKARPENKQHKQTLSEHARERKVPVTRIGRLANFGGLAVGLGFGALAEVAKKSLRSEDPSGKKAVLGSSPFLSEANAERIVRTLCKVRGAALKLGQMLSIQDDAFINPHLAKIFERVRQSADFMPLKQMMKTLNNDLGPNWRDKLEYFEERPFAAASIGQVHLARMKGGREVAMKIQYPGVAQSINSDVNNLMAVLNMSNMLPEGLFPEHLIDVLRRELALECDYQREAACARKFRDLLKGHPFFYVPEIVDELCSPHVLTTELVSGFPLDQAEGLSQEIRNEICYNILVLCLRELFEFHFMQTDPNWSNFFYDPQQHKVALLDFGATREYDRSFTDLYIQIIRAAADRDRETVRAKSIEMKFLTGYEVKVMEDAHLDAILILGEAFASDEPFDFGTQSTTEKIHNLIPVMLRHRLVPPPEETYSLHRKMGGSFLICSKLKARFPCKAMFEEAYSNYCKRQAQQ
Sequence of KIT(V5S9D, V654A) (P10721 544-976 V559D/V654A): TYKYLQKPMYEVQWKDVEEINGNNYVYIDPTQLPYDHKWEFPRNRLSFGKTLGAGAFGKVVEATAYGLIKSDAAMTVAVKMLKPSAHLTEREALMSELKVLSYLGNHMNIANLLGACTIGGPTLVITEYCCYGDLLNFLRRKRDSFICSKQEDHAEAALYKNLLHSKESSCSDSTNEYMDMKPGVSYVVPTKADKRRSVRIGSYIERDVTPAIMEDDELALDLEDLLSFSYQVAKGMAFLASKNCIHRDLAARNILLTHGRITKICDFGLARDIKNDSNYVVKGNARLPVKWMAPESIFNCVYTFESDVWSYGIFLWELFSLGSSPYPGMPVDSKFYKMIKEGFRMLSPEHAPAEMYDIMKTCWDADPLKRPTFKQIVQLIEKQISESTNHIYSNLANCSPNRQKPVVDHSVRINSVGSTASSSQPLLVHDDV
Sequence of CSNK2A1 (P68400 whole entry): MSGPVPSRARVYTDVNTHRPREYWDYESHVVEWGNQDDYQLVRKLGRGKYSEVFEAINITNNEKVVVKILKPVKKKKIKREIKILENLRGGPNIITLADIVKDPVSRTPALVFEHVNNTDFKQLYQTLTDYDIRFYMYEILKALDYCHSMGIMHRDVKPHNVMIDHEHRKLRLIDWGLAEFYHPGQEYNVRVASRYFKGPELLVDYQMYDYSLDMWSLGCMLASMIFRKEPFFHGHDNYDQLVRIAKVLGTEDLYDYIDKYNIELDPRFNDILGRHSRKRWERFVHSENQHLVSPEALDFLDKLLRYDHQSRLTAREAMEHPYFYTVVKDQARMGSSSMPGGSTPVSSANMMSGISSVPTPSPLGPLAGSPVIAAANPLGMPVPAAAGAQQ
Sequence of MEK2 (P36507 whole entry): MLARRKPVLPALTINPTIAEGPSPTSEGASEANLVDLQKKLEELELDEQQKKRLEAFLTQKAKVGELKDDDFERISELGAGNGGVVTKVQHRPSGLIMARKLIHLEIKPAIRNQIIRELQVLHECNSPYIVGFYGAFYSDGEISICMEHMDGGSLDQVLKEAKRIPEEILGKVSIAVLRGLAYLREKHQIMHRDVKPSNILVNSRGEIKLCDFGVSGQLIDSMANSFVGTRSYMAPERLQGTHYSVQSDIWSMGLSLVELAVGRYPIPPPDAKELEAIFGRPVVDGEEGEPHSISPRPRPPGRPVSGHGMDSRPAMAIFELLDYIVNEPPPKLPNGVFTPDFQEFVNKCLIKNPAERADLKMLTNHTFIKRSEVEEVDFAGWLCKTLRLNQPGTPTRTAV
Sequence of ERK3 (Q16659 whole entry): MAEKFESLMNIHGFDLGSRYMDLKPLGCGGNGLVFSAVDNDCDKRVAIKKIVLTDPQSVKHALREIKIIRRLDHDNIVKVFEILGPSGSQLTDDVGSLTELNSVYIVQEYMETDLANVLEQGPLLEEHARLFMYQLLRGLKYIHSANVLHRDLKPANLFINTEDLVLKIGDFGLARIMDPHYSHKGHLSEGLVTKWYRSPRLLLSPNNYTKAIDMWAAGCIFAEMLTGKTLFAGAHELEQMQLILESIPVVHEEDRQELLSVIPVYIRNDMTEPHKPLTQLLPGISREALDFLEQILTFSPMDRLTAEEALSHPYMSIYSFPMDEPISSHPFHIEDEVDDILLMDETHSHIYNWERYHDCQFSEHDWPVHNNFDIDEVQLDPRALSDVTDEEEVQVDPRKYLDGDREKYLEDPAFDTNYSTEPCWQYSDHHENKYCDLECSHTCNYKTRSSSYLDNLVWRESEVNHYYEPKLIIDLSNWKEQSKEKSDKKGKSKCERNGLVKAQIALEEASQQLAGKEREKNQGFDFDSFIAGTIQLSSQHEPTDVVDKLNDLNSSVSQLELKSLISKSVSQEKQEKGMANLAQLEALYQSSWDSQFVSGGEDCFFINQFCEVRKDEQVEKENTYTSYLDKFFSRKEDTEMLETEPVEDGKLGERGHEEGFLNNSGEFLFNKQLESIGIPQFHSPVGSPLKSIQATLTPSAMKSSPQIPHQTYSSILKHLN

Row | SMILES | IC50 (PTK2 (FAK); [1]) | remaining binding at 10 µM (ADCK3) [%] | remaining binding at 10 µM (AKT1) [%] | remaining binding at 10 µM (ALK) [%] | remaining binding at 10 µM (CDK5) [%] | remaining binding at 10 µM (CSNK2A1) [%] | remaining binding at 10 µM (EIF2AK1) [%] | remaining binding at 10 µM (ERK3) [%] | remaining binding at 10 µM (ERK4) [%] | Percent Control (FLT3(ITD, F691L)) [%] | remaining binding at 10 µM (ICK) [%] | remaining binding at 10 µM (JNK1) [%] | remaining binding at 10 µM (JNK2) [%] | remaining binding at 10 µM (MEK2) [%] | remaining binding at 10 µM (MEK3) [%] | remaining binding at 10 µM (MEK5) [%] | remaining binding at 10 µM (MLK3) [%] | remaining binding at 10 µM (NDR1) [%] | remaining binding at 10 µM (NEK10) [%] | remaining binding at 10 µM (OSR1) [%] | also measured
1 | COc1cc(N2CCC(N3CCN(C)CC3)CC2)ccc1Nc1ncc2c(n1)N(C)c1sc(C)nc1C(=O)N2 [Compound 3, 6-((2-methoxy-4-(4-(4-methylpiperazin-1-yl)piperidin-1-yl)phenyl)amino)-2,4-dimethyl-4,9-dihydro-10H-pyrimido[5,4-b]thiazolo[5,4-e][1,4]diazepin-10-one] | 62 nM and 62.2 nM | 54 | 89 | 100 | 71 | 93 | 73 | 89 | 84 | 100 | 100 | 100 | 100 | 100 | 92 | 22 | 73 | 97 | 100 | 100 | remaining binding at 10 µM (KIT(V5S9D, V654A); KIT(V5S9D, V654A)): 108%; remaining binding at 10 µM (PCTK1): 100%; remaining binding at 10 µM (PIK3CA(H1047L)): 66%; remaining binding at 10 µM (PRKD1): 78%
2 | COc1cc(N2CCC(N3CCN(C)CC3)CC2)ccc1Nc1ncc2c(n1)N(C)c1sc(C)nc1C(=O)N2C [Compound 5, 6-((2-methoxy-4-(4-(4-methylpiperazin-1-yl)piperidin-1-yl)phenyl)amino)-2,4,9-trimethyl-4,9-dihydro-10H-pyrimido[5,4-b]thiazolo[5,4-e][1,4]diazepin-10-one] | 18.3 nM | 88 | 100 | 99 | 98 | 95 | 100 | 100 | 100 | 93 | 100 | 100 | 98 | 99 | 100 | 100 | 100 | 98 | 94 | 100 | IC50 (PTK2 (FAK); FAK, Invitrogen, read-out: Biochemical IC50): 20.2 ± 1.9 nM; remaining binding at 10 µM (KIT(V5S9D, V654A); KIT(V559D, V654A)): 100%; remaining binding at 10 µM (PCTK1): 100%; remaining binding at 10 µM (PIK3CA(H1047L)): 80%; remaining binding at 10 µM (PRKD1): 43%
